Assay results reported in ChEMBL document CHEMBL1126096, “Carbohydrate materials bearing neuraminidase-resistant C-glycosides of sialic acid strongly inhibit the in vitro infectivity of influenza virus” (J Med Chem, 1992).

Key:
[1] = system: unidentified influenza virus; assay: Potency to inhibit influenza virus (X-31) relative to alpha-C-allyl sialic acid; assay type: functional
[2] = system: unidentified influenza virus; assay: The compound was evaluated for the inhibition of influenza virus (X-31); assay type: functional, organism-based

| SMILES | Relative potency [1] | IC50 [2] [mM] |
| --- | --- | --- |
| CO[C@]1(C(=O)O)C[C@H](O)[C@@H](NC(C)=O)[C@H]([C@@H](O)[C@H](O)CO)O1 | 2.5 | 4 |
| C=CC[C@@]1(C(=O)O)C[C@H](O)[C@@H](NC(C)=O)[C@H](C(O)C(O)CO)O1 (stereo partly specified) | 1 | 10 |
| C=CC[C@]1(C(=O)O)C[C@H](O)[C@@H](NC(C)=O)[C@H](C(O)C(O)CO)O1 (stereo partly specified) | <0.02 | > 50 |
